Values of other authors, collected in patent US20040132815A1, “Preventive/remedial agent for inflammatory disease in oral-cavity mucosa and the like” (priority 2001, published 2004).

Details: compared with the disodium salt

hygroscopicity: less hygroscopic
stability: more stable
Structure (SMILES): CC(C)c1cc2c(cc1S(=O)(=O)[O-])[C@@]1(C)CCC[C@@](C)(C(=O)O)[C@@H]1CC2.[Na+] [Sulfodehydroabietic acid monosodium salt]
